Like-named read-outs stand apart in the source and are kept apart here.
Tests used:
HIV-1 NL4-3 = assay: Antiviral assay in MT-4 cells, multiple-round infection, CellTiter-Glo; assay type: cell-based
Description: MT-4 cells growing exponentially at the density of 10^6/mL were infected with HIV-1 strain NL4-3 at a MOI (multiplicity of infection) of 0.001 for 2 h. The cells were washed with PBS and aliquoted, using 100 μL fresh complete RPMI, into 96-well white plates (Corning) in the presence of different concentrations of compounds.

[1] = test system: VSV-G-pseudotyped NL4-3Δenv-luc; assay: microbe, parasite or virus in culture; assay type: cell-based, HIV-1; settings: for EC50: Human immunodeficiency virus 1, NL43, MT4, read-out: NL4-3 EC50 Single-round
[2] = test system: NL4-3 Protease L10R, M46I, L63P, V82T, I84V; assay: Antiviral assay on PI-resistant virus; assay type: cell-based, HIV-1; settings: ratio EC50 resistant virus / wt virus
[3] = test system: NL4-3 RT M41L, D67N, T69N, K70R, T215F, K219E; assay: Antiviral assay on NRTI-resistant virus; assay type: cell-based, HIV-1; settings: ratio EC50 resistant virus / wt virus
[4] = test system: NL4-3 RT M41L, D67N, K103N, M184V, L210W, T215Y; assay: Antiviral assay on Multi-drug (NRTI + NNRTI) resistant virus; assay type: cell-based, HIV-1; settings: ratio EC50 resistant virus / wt virus; NRTI + NNRTI mutations
NL4-3 RT K103N, Y181C = assay: Antiviral assay on NNRTI-resistant virus; assay type: cell-based, HIV-1; settings: ratio EC50 resistant virus / wt virus
[5] = test system: NL4-3 Integrase G140S, Q148H; assay: Antiviral assay on INSTI-resistant virus; assay type: cell-based, HIV-1; settings: ratio EC50 resistant virus / wt virus
[6] = target: T1, IN-CCD/LEDGF-IBD interaction (Human immunodeficiency virus type 1 group M subtype B, UniProt P12497, F1332K); assay: HTRF-based CCD-IBD interaction assay; assay type: binding, HIV-1; settings: Table 1
T1 construct: cloning the integrase region (residues 50 to 202, encoding the catalytic core domain); made in house
Description: All HTRF® conjugated monoclonal antibodies were purchased from Cisbio Bioassays.

IN-LEDGF/p75 interaction = IN-LEDGF/p75 interaction (Human immunodeficiency virus type 1 group M subtype B, UniProt P12497); assay: biochemical; settings: IN-LEDGF IC50, Table 1; HTRF, full length proteins
Description: IN-LEDGF HTRF® assay was performed in 384-well low volume black polystyrene plates (Corning) using IN-LEDGF assay buffer (25 mM Tris–HCl pH 7.4, 150 mM NaCl, 2 mM MgCl2, 0.4 M KF, 0.1% Igepal CA-630, 0.1% bovine serum albumin, 1 mM DTT). […] The HTRF ratio was converted to % inhibition and analyzed by fitting a sigmoidal dose–response equation with Hill slope to determine the IC50 of the compound.

HxB2 HIV-1 = assay: Antiviral assay in MT4 cells infected with HxB2; assay type: cell-based; settings: Human immunodeficiency virus 1, HXB2, MT4; Table 1; read-out: HxB2 EC50 (MT4 assays)
in vitro = assay type: cell-based; settings: human
Description: Growth inhibition was monitored in a proliferating human T-cell line (MT-4) with different concentrations of compounds. ATP levels were quantified using the CellTiter-Glo® luminescent reagent (Promega) to measure the ability of a compound to inhibit cell growth, an indication of the compound’s cytotoxicity. Cytotoxicity was evaluated at either day 2 or day 5.

[7] = target: T2, IN strand transfer activity (Human immunodeficiency virus type 1 group M subtype B, UniProt P12497); assay: IN strand transfer ELISA assay; assay type: biochemical, HIV-1; settings: for IC50: Table 1, ELISA, read-out: IN ST IC50; for IN ST plateau (%): inhibition plateau, concentrations up to 100 μM
T2 construct: loaded on a Superdex 200 16/600 PG column (for full length IN); made in house
Description: IN strand transfer ELISA assay has been adapted from. […] 16 μL of IN mixture (20 mM HEPES pH 7.5, 10 mM MgCl2, 1 mM DTT, 0.50 μM His6-IN) was added. […] The reaction was stopped by addition of 60 μL stop mixture (20 mM Tris–HCl pH 7.6, 0.4 M NaCl, 10 mM Na2EDTA, 0.1 mg/mL salmon sperm DNA) and the volume transferred to Reacti-Bind high-binding capacity streptavidin-coated white plates (Thermo Scientific Pierce). After 1 h incubation at room temperature under gentle shaking, integrase and unjoined DNA were removed by three washes with 200 μL wash solution 1 (30 mM NaOH, 0.2 M NaCl, 1 mM Na2EDTA). 100 μL of 2000-fold diluted HRP-conjugated anti-DIG Fab (Roche Applied Science) was added and the plate was incubated for 1 h at 37°C. Unbound antibody was removed with wash solution 2 (PBS pH 7.4, 0.05% Tween-20, 0.1% bovine serum albumin), 100 μL of SuperSignal Femto ELISA substrate (Thermo Scientific Pierce) was added and chemiluminescence was immediately read in a PHERAstar Plus with LUM-plus module. The signal, converted to % inhibition, was analyzed by fitting a sigmoidal dose–response curve to determine IC50 and the inhibition plateau.

[8] = test system: HIV-1 LAV virions produced by HeLa-LAV cells; assay: Virions produced by compound-treated HeLa-LAV cells: p24 and infectivity; assay type: cell-based; settings: luciferase assay in TZM cells
HIV-1 NL4-3 wt = assay type: cell-based
[9] = test system: NL4-3 IN T174I mutant virus; assay type: cell-based, HIV-1
[10] = target: His6-IN (HIV-1 NL4-3 integrase wild type, from pINSD.His) (HIV-1 NL4-3); assay: SEC; Superdex 200 10/300 GL, 0.4 mL/min, 50 mM HEPES pH 7.5, 1 M NaCl, 7 mM CHAPS, 5 mM MgCl2, 10 mM DTT, 10% glycerol, room temperature; His6-IN wt 21 uM or His6-IN A128T 40 uM; no compound
[11] = target: His6-IN (HIV-1 NL4-3 integrase wild type, from pINSD.His) (HIV-1 NL4-3); assay: SEC; Superdex 200 10/300 GL, 0.4 mL/min, 50 mM HEPES pH 7.5, 1 M NaCl, 7 mM CHAPS, 5 mM MgCl2, 10 mM DTT, 10% glycerol, room temperature; His6-IN wt 21 uM or His6-IN A128T 40 uM incubated for 10 min with 100 uM BI-D or Mut101 before injection
[12] = Human immunodeficiency virus 1, NL43, MT4, Table 3, mean of two independent experiments, read-out: EC50 NL4-3 WT
[13] = Human immunodeficiency virus 1, NL43, MT4 cells, mean of six independent experiments, read-out: NL4-3 EC50 Multiple-round
[14] = Human immunodeficiency virus 1, NL43, MT4, Table 1, read-out: NL4-3 EC50 (MT4 assays)
[15] = HEK293T transfection, MT4 infection, CellTiter-Glo

Molecule	EC50 [1]	EC50 (HIV-1 NL4-3; [13])	SR/MR ratio [1]	IC50 [6]	IC50 (IN-LEDGF/p75 interaction)	EC50 (HIV-1 NL4-3; [14])	EC50 (HxB2 HIV-1)	CC50 (in vitro)	other results
Cc1cn([C@H]2C[C@H](N=[N+]=[N-])[C@@H](CO)O2)c(=O)[nH]c1=O [AZT, Zidovudine]	0.0025 ± 0.0003 µM	–	–	–	–	–	–	–	EC50 (HIV-1 NL4-3; [12]): 0.14 µM; EC50 fold change PI [2]: 1; EC50 fold change NRTIs [3]: 88; EC50 fold change Multi-drug [4]: 10; EC50 fold change NNRTIs (NL4-3 RT K103N, Y181C): 0.1; EC50 fold change INSTIs [5]: 0.4
O=C1Nc2ccc(Cl)cc2[C@@](C#CC2CC2)(C(F)(F)F)O1 [EFV, Efavirenz, reference compound]	0.0012 ± 0.0004 µM	0.0013 ± 0.0002 µM	0.9	–	–	–	–	–	–
COc1cc2c(cc1Cc1cccc(Cl)c1F)c(=O)c(C(=O)O)cn2[C@H](CO)C(C)C [EVG, Elvitegravir]	0.00042 ± 5e-05 µM	0.00086 ± 0.0004 µM	0.5	–	–	–	–	–	EC50 (HIV-1 NL4-3; [12]): 0.003 µM; EC50 fold change PI [2]: 1; EC50 fold change NRTIs [3]: 0.3; EC50 fold change Multi-drug [4]: 0.3; EC50 fold change NNRTIs (NL4-3 RT K103N, Y181C): 1; EC50 fold change INSTIs [5]: 2036
CC(C)(C)NC(=O)[C@@H]1CN(Cc2cccnc2)CCN1C[C@@H](O)C[C@@H](Cc1ccccc1)C(=O)N[C@H]1c2ccccc2C[C@H]1O [IDV, Indinavir]	–	0.036 µM	–	–	–	–	–	–	EC50 (HIV-1 NL4-3; [12]): 0.032 µM; NL4-3 EC50 Single-round [1]: Inactive; EC50 fold change PI [2]: 9; EC50 fold change NRTIs [3]: 1; EC50 fold change Multi-drug [4]: 1; EC50 fold change NNRTIs (NL4-3 RT K103N, Y181C): 1; EC50 fold change INSTIs [5]: 1
CC(C)(C)OC(C(=O)O)c1c(-c2ccc3c(c2)CCCO3)ccc2ncccc12 (stereo not shown) [Mut029, 2-(tert-butoxy)-2-[6-(3,4-dihydro-2H-1-benzopyran-6-yl)quinolin-5-yl]acetic acid]	30 ± 4 µM	3.8 ± 1.6 µM	8	1.7 µM	2.5 µM	3.8 µM	3.8 µM	> 50 µM	–
CC(C)(C)OC(C(=O)O)c1c(-c2ccc3c(c2)CCCO3)ccc2ccccc12 (stereo not shown) [Mut047, 2-(tert-butoxy)-2-[2-(3,4-dihydro-2H-1-benzopyran-6-yl)naphthalene-1-yl]acetic acid]	37 ± 2 µM	16 ± 7 µM	2.3	3.8 µM	7.9 µM	16 µM	19 µM	> 50 µM	IC50 [7]: 0.88 µM; IN ST plateau (%) [7]: 70%
Cc1nc2ccccc2c(C2CCCCC2)c1C(OC(C)(C)C)C(=O)O (stereo not shown) [Mut049, 2-(tert-butoxy)-2-(4-cyclohexyl-2-methylquinolin-3-yl)acetic acid]	41 ± 2 µM	2 ± 0.1 µM	21	18 µM	3.5 µM	2 µM	0.75 µM	> 50 µM	IC50 [7]: 0.18 µM; IN ST plateau (%) [7]: 56%
CC(C)(C)OC(C(=O)O)C1=C(c2ccc3c(c2)CCCO3)c2ccccc2OC1 (stereo not shown) [Mut062, 2-(tert-butoxy)-2-[4-(3,4-dihydro-2H-1-benzopyran-6-yl)-2H-chromen-3-yl]acetic acid]	–	3.3 ± 1.5 µM	>25	2.7 µM	3.1 µM	3.3 µM	1.3 µM	> 50 µM	IC50 [7]: 0.54 µM; IN ST plateau (%) [7]: 73%; Inhibition in single-round infection assay [1]: 30% @50
CC(C)(C)OC(C(=O)O)c1ccc(Oc2ccccc2)cc1-c1ccc2c(c1)CCCO2 (stereo not shown) [Mut063, 2-(tert-butoxy)-2-[2-(3,4-dihydro-2H-1-benzopyran-6-yl)-4-phenoxyphenyl]acetic acid]	–	–	–	> 100 µM	> 100 µM	> 50 µM	–	> 50 µM	IC50 [7]: > 100 µM; Infectivity of virions from treated HeLa-LAV cells [8]: no infectivity defect
Cc1nc2c(c(-c3ccccc3)c1C(OC(C)(C)C)C(=O)O)CCCC2 (stereo not shown) [Mut075, 2-(tert-butoxy)-2-(2-methyl-4-phenyl-5,6,7,8-tetrahydro-quinolin-3-yl)acetic acid]	–	3.4 ± 1 µM	>25	14 µM	4 µM	3.4 µM	1 µM	> 50 µM	Inhibition in single-round infection assay [1]: 23% @50
Cc1ccnc2c1NC(=O)c1cccnc1N2C1CC1 [NVP, Nevirapine]	0.041 ± 0.008 µM	0.086 ± 0.012 µM	–	–	–	–	–	–	EC50 (HIV-1 NL4-3; [12]): 0.16 µM; EC50 fold change PI [2]: 1; EC50 fold change NRTIs [3]: 3; EC50 fold change Multi-drug [4]: 14; EC50 fold change NNRTIs (NL4-3 RT K103N, Y181C): 287; EC50 fold change INSTIs [5]: 1
Cc1nnc(C(=O)NC(C)(C)c2nc(C(=O)NCc3ccc(F)cc3)c(O)c(=O)n2C)o1 [RAL, Raltegravir, reference compound]	0.0025 ± 0.0003 µM	–	–	–	–	–	–	–	EC50 (HIV-1 NL4-3; Human immunodeficiency virus 1, NL43, MT4, read-out: EC50 NL4-3 WT): 0.007 µM; EC50 (HIV-1 NL4-3; Human immunodeficiency virus 1, NL43, MT4, read-out: NL4-3 EC50 Multiple-round): 0.0024 ± 0.0006 µM; Infectivity of virions from treated HeLa-LAV cells [8]: no infectivity defect; Infectivity of NL4-3 wt virus produced in presence of compound (HIV-1 NL4-3 wt; [15]): no effect; Infectivity of NL4-3 IN T174I virus produced in presence of compound [9, 15]: no effect
CC(C)(C)NC(=O)[C@@H]1C[C@@H]2CCCC[C@@H]2CN1C[C@@H](O)[C@H](Cc1ccccc1)NC(=O)[C@H](CC(N)=O)NC(=O)c1ccc2ccccc2n1 [SQV, Saquinavir, reference compound]	–	0.013 µM	–	–	–	–	–	–	NL4-3 EC50 Single-round [1]: Inactive; Infectivity of virions from treated HeLa-LAV cells [8]: strong virus infectivity defects; Infectivity of NL4-3 wt virus produced in presence of compound (HIV-1 NL4-3 wt): sensitive to and inactivated; Infectivity of NL4-3 IN T174I virus produced in presence of compound [9]: sensitive to and inactivated
His6-IN (HIV-1 NL4-3 integrase wild type, from pINSD.His) (enzyme)	–	–	–	–	–	–	–	–	stoichiometry N [10]: 2; stoichiometry N [11]: 4

— paper PMC4222603, “Dual inhibition of HIV-1 replication by integrase-LEDGF allosteric inhibitors is predominant at the post-integration stage” (Retrovirology, 2013)
